Tests used:
[1] = test system: rat liver mitochondria (inner mitochondrial membrane potential); assay: Mitochondrial membrane potential measured by safranine O fluorescence; settings: for series of the uncoupling potency (relative drop in membrane potential, concentration dependence): isolated rat liver mitochondria, measured at 300 s after peptide addition, safranine O; for decrease of mitochondrial membrane potential: isolated rat liver mitochondria 0.4 mg/ml protein, 5 mM succinate + 1 µM rotenone, 5 nM (about 10 nanogram/ml) peptide, safranine O 10 µM, pH 7.4
Method: To assess the effect of gramicidin derivatives on the mitochondrial membrane potential, we assayed the latter with the potential-dependent dye safranine O. The fluorescence of this dye (at a high concentration) is known to drop with increasing the mitochondrial membrane potential and rise upon the addition of protonophores [42], [47].
Control, no other additions. gA, [Glu1]gA, [Glu3]gA, [Lys1]gA, and [Lys3]gA show traces after the addition of 5 nM (i.e. about 10 nanogram/ml) of a corresponding peptide at t = 0 s. Trace “excess [Glu1]gA” was measured with 1 µg/ml peptide. Panel B. Dose dependence of the effect of [Glu1]gA on mitochondrial membrane potential.
Experiments were performed on outbred white male rats (180–200 g) fed ad libitum. […] Rat liver mitochondria were isolated by differential centrifugation [60] in a medium containing 250 mM sucrose, 10 mM MOPS, 1 mM EGTA, and bovine serum albumin (0.1 mg/ml), pH 7.4. The final washing was preformed in the medium of the same composition. Protein concentration was determined using bicinchoninic acid as described in [61].
Safranine O (10 µM) was used as a membrane potential probe [42]. Fluorescence intensity at 580 nm (excitation at 520 nm) was measured with a Panorama Fluorat 02 spectrofluorimeter (Lumex, Russia). The medium for measurements contained 300 mM sucrose, 20 mM MOPS, 0.5 mM EDTA, 0.5 mg/ml BSA, pH 7.4. Mitochondrial protein concentration was 0.4 mg/ml.

[2] = Single-channel recordings on planar bilayer lipid membrane; settings: DPhPC/decane BLM, 100 mM HCl; for single-channel conductance: from current histograms
Method: Proton channels formed by gA can be observed by measuring electric current across a planar bilayer lipid membrane (BLM), if the experiments are performed in the acidic pH range [19], [20], [26], [50]. Figure 6 presents typical recordings of fluctuations of transmembrane current induced by gA and [Glu1]gA (panels A and D of Fig. 6) which were obtained under the same conditions. The single-channel conductance of [Glu1]gA (150 pS) was close to that of gA (140 pS) as judged from the current histograms (panels B and E), while the single-channel lifetime of the analogue (about 16 ms as estimated from the exponential fit to open channel duration histogram, panel F of Fig. 6) was much shorter than that of gA (116 ms, panel C).
Figure 6 Single-channel recordings (A, D) and the corresponding current histograms (B, E) of gramicidin A ([…], A, B, and C) and [Glu1]gA (2 nanogram/ml, D, E, and F) at a voltage of 100 mV applied to the DPhPC/decane membrane. The solution was 100 mM HCl. (C, F) Open state duration histograms fitted by a single exponential with a time constant of 116 ms (C) and 16 ms (F). The records were filtered at 100 Hz (A, B, and C) or 1000 Hz (D, E, and F).
(§1) Planar bilayer lipid membranes (BLM) were formed from a 2% solution of diphytanoylphosphatidylcholine (DPhPC) (Avanti Polar Lipids, Alabaster, AL) in n-decane on a hole in a Teflon partition (0.5-mm diameter) separating two compartments of a cell containing aqueous buffer solutions [64].The electric current (I) was recorded under voltage-clamp conditions. Voltage was applied to BLMs with Ag-AgCl electrodes placed directly into the cell. The current measured by means of a patch-clamp amplifier (Warner Instruments, Hamden, CT, model BC-525C) was digitized using an NI-DAQmx (National Instruments, Austin, TX) and analyzed with a personal computer with the use of WinWCP Strathclyde Electrophysiology Software designed by J. Dempster (University of Strathclyde, UK).

[3] = test system: cultured renal tubular cells; assay: MTT cell viability test; assay type: cell-based; settings: 24 h
Method: (§2) In subsequent series of experiments, the uncoupling action of [Glu1]gA was tested in rat kidney cell culture loaded with the potential sensitive dye tetramethylrhodamine ethyl ester (TMRE). […] By contrast, the parent gA depolarized mitochondria in cells at substantially higher concentrations starting from 0.1 mg/ml (Fig. 2C). […] In particular, treatment with 50 µg/ml gA caused about 80% cell death, while [Glu1]gA provoked only about 15% cell death. […] The increased effective concentrations of the [Glu1]gA in cell culture with respect to those with isolated mitochondria (Fig. 1) could be attributed to poor peptide permeation through plasma membrane.
Figure 3 Viability of cultured renal cells according to the MTT test after 24 h treatment with appropriate concentration of [Glu1]gA or gA in culture medium without serum. Experiments were performed 2 times in which 10 wells per each concentration were analyzed.
Cell viability was evaluated by a widely used methyl thiazol tetrazolium (MTT) test. […] Then the dye solution was removed, 50 µl DMSO per well was added and absorbance at 540 nm was measured. Experiments were performed twice in which 10 wells per each concentration were analyzed.

[4] = test system: rat kidney cell culture (renal tubular epithelium cells); assay type: cell-based
Method: as §2
Confocal images of cultured renal cells loaded with TMRE in control (A) and after treatment with 0.01 mg/ml [Glu1]gA (B). Diagram (C) presents the mean intensity of TMRE fluorescence through 10 confocal images for each [Glu1]gA (solid bars) or gA (hatched bars) concentration.
Kidneys were excised aseptically from 3–7 day old rats, then homogenized and placed in balanced Hanks solution at pH 7.4. After several washes the dispensed tissue was placed in 0.1% collagenase and incubated for 20–30 min at 37°C. Large pieces were removed, and cells were sedimented by gentle centrifugation (50 g) for 3 min. The pellet was resuspended in DMEM/F-12 1:1 containing 10% fetal calf serum (FCS) and seeded in culture plates and glass-bottom dishes. Cells were cultivated in a CO2 (5%) incubator for 1–2 days before the experiments. The gA or [Glu1]gA solution was added to the cultured epithelial cells to appropriate concentration and incubated for 10 min at 37°C in DMEM/F-12 medium containing 10 mM Hepes-NaOH. Next, cells were incubated with 100 nM TMRE (Invitrogen, USA) or 1 µM Lysotracker Green (Invitrogen, USA) for 30 min followed by washing in DMEM/F-12. Then renal tubular epithelial cells were imaged with an LSM510 inverted confocal microscope (Carl Zeiss Inc., Jena, Germany). Analysis of fluorochrome incorporation was performed in glass-bottom dishes (MatTek Corp., USA) with excitation at 488 and 543 nm and emission collected at 510–530 and 560–590 nm, for Lysotracker and TMRE, correspondingly. To minimize the contribution of photo-induced mitochondria/cell damage to the relative fluorescence intensities, image analysis was performed on the average of the first four scans only. Images were processed using ImageJ software (NIH, Bethesda, MD, USA).

[5] = Induction of electrical current across planar BLM with and without liposomes; settings: for effect of liposomes on induction of BLM current: liposomes 1 µg/ml DPhPC, peptide and liposomes at one side, gA 2 nanogram/ml, [Glu1]gA 200 nanogram/ml, 100 mM KCl, 10 mM Tris, 10 mM MES, pH 7.0, 50 mV
Text: The difference in efficacy of gA and [Glu1]gA described here in a variety of systems could be associated with different abilities of the peptides to redistribute between membrane structures and/or their diverse permeability through membranes. To cause a reduction of an electrical potential difference across the inner mitochondrial membrane, peptide molecules must penetrate through the outer membrane in the case of isolated mitochondria, and additionally through the plasma membrane in the case of cells. While encountering with a series of membrane structures, e.g. endosomes, on their way from the plasma to the mitochondrial membrane, peptides may undergo numerous cycles of membrane binding and desorption. To study such a process in a model system, we measured the effect of liposome addition on the time course of the induction of electrical current across a planar BLM by gA and [Glu1]gA. In these experiments we added liposomes and peptides at one side of BLM in order to mimic the addition of the peptides to mitochondria and cells.
Figure 7 Effect of liposomes (1 µg/ml DPhPC) on the induction of electrical current on planar lipid bilayer by gA (2 nanogram/ml, panel A) and [Glu1]gA (200 nanogram/ml, panel B). The peptides and liposomes were added at one side of the membrane. The solution was 100 mM KCl, 10 mM Tris, 10 mM MES, pH = 7.0, BLM voltage was 50 mV.
as §1, with “Voltage was applied to BLMs with Ag-AgCl electrodes placed directly into the cell.” left out

[6] = test system: rat liver mitochondria; assay: Respiration of isolated mitochondria (Clark-type oxygen electrode); settings: 25°C, pH 7.4, 100 nM = 200 nanogram/ml, data not shown
[7] = test system: lysosomes of rat kidney cells; assay: Lysosome integrity and pH gradient by Lysotracker Green; assay type: cell-based; settings: 0.1 mg/ml peptide, 1 µM Lysotracker Green
Method: In further experiments, we tested the interaction of [Glu1]gA with lysosomes of rat kidney cells by using the dye Lysotracker Green known to accumulate in highly acidic interior of lysosomes. […] Thus, [Glu1]gA appeared to interact specifically with mitochondrial membranes leading to their partial depolarization.
Figure 4 Micrographs of rat kidney cell culture loaded with Lysotracker Green in the absence (A), and in the presence of 0.1 mg/ml (B) of [Glu1]gA.
Kidneys were excised aseptically from 3–7 day old rats, then homogenized and placed in balanced Hanks solution at pH 7.4. After several washes the dispensed tissue was placed in 0.1% collagenase and incubated for 20–30 min at 37°C. Large pieces were removed, and cells were sedimented by gentle centrifugation (50 g) for 3 min. The pellet was resuspended in DMEM/F-12 1:1 containing 10% fetal calf serum (FCS) and seeded in culture plates and glass-bottom dishes. Cells were cultivated in a CO2 (5%) incubator for 1–2 days before the experiments. The gA or [Glu1]gA solution was added to the cultured epithelial cells to appropriate concentration and incubated for 10 min at 37°C in DMEM/F-12 medium containing 10 mM Hepes-NaOH. […] To minimize the contribution of photo-induced mitochondria/cell damage to the relative fluorescence intensities, image analysis was performed on the average of the first four scans only. […]

[8] = Dissipation of pH gradient in pyranine-loaded liposomes; settings: 2 µg/ml peptide
Method: Figure 5 Dissipation of the pH gradient on membranes of pyranine-loaded liposomes by gA and [Glu1]gA (both 2 µg/ml). Inner liposomal pH was estimated from pyranine fluorescence intensity measured at 505 nm upon excitation at 455 nm. Nigericin (1 µM) was added at 400–420 s to equilibrate the pH. Control, a record without peptides.
The lumenal pH of the liposomes was assayed with pyranine as described in [11] by a slightly modified procedure of [63]. To prepare pyranine-loaded liposomes, lipids (5 mg egg yolk phosphatidylcholine and 1 mg cholesterol) in a chloroform suspension were dried in a round-bottom flask under a stream of nitrogen. The lipids were then resuspended in buffer (100 mM KCl, 20 mM MES, 20 mM MOPS, 20 mM Tricine titrated with KOH to pH 6.0) containing 0.5 mM pyranine. The suspension was vortexed and then freeze-thawed three times. Unilamellar liposomes were prepared by extrusion through 0.1-µm-pore size Nucleopore polycarbonate membranes using an Avanti Mini-Extruder. The unbound pyranine was then removed by passage through a Sephadex G-50 coarse column equilibrated with the same buffer solution. […] The pH was estimated from the intensities of fluorescence measured at 505 nm upon excitation at 455 nm, as monitored with the Panorama Fluorat 02 spectrofluorimeter. At the end of each recording, 1 µM nigericin was added to dissipate the remaining pH gradient.

Substance: HCO-KGALAVVVWLWLWLW-NH(CH2)2OH [[Lys1]gA]
- series of the uncoupling potency (relative drop in membrane potential, concentration dependence) [1]: [Glu1]gA > = gA > [Glu3]gA > [Lys3]gA > [Lys1]gA

Substance: HCO-VGELAVVVWLWLWLW-NH(CH2)2OH [[Glu3]gA]
- series of the uncoupling potency (relative drop in membrane potential, concentration dependence) [1]: [Glu1]gA > = gA > [Glu3]gA > [Lys3]gA > [Lys1]gA

Substance: gramicidin A [gA, reference compound]
- single-channel lifetime (open state duration, single-exponential time constant) ([2]; 100 mV): 116 ms
- single-channel conductance ([2]; 100 mV): 140 pS
- cell death (MTT) ([3]; 50 µg/ml peptide, DMEM/F12 without serum, 2 experiments, 10 wells per concentration): about 80%
- concentration limit to which certain toxicity is seen (MTT) ([3]; medium without serum): ≥ 100 ng/mL
- concentration from which mitochondria in cells are depolarized ([4]; rat kidney cell culture, TMRE): ≥ 0.1 mg/mL
- effect of liposomes on induction of BLM current [5]: somewhat slower in the presence of liposomes
- decrease of mitochondrial membrane potential [1]: most efficient in decreasing the mitochondrial membrane potential
- series of the uncoupling potency (relative drop in membrane potential, concentration dependence) [1]: [Glu1]gA > = gA > [Glu3]gA > [Lys3]gA > [Lys1]gA

Substance: HCO-VGKLAVVVWLWLWLW-NH(CH2)2OH [[Lys3]gA]
- series of the uncoupling potency (relative drop in membrane potential, concentration dependence) [1]: [Glu1]gA > = gA > [Glu3]gA > [Lys3]gA > [Lys1]gA

Substance: HCO-EGALAVVVWLWLWLW-NH(CH2)2OH [[Glu1]gA]
- single-channel conductance ([2]; 100 mV): 150 pS
- concentration required to observe single channels, relative to gA ([2]; symmetrical addition): much higher (approx. by two orders of magnitude)
- concentration stimulating mitochondrial respiration up to the level of fully uncoupled respiration [6]: higher than 100 nM
- lysosome integrity and pH gradient across lysosomal membranes (Lysotracker fluorescence intensity) [7]: No change
- effective concentrations in cells relative to isolated mitochondria ([4]; cells versus isolated mitochondria): higher in cells than in mitochondria by three orders of magnitude
- depolarizing concentrations in cell culture relative to gA ([4]; mitochondria in cell culture): by an order of magnitude lower than those of gA
- decrease in the mitochondrial membrane potential (TMRE fluorescence) ([4]; rat kidney cell culture, 10 µg/ml (about 5 µM) peptide, 10 min at 37°C, then 100 nM TMRE 30 min): more than a two-fold decrease
- depolarization of mitochondria in cells ([4]; rat kidney cells, 0.1 mg/ml peptide): maximal depolarization of mitochondria
- effect of liposomes on induction of BLM current [5]: accelerated many fold the induction of the current
- concentration required to induce current similar to that of gA, one-sided addition ([5]; planar BLM, peptide added from one side of the membrane): about two orders of magnitude higher
- rate of pH gradient dissipation (enhancement of liposome-entrapped pyranine fluorescence) [8]: slower than that provoked by the parent peptide gA
- decrease of mitochondrial membrane potential [1]: most efficient in decreasing the mitochondrial membrane potential
- series of the uncoupling potency (relative drop in membrane potential, concentration dependence) [1]: [Glu1]gA > = gA > [Glu3]gA > [Lys3]gA > [Lys1]gA

From paper PMC3404012, “N-Terminally Glutamate-Substituted Analogue of Gramicidin A as Protonophore and Selective Mitochondrial Uncoupler” (PLoS ONE, 2012)
